Laboratory results: US6770673B1, “Therapeutic uses of arglabin in combination with other chemotherapy agents” (priority 1997, dated 2004)
Where two headings read alike, the source gives them in different places. Marks after values point to notes of the source that are not given here.

Key:
P-815 cells = assay: Proliferation of transformed cells, 3H-thymidine incorporation; assay type: cell-based, mouse; details: 3H-thymidine 18 hours, FIG. 6
Procedure: (§1) Mouse mastocytoma (P-815), myeloma (Z-P3x63Ag8.653 and Pai) and human erthyroleukemia (K-562) cell lines were used. Primary cultures of normal mouse hepatocytes were isolated from mouse liver using collagenase. Mouse splenocytes were isolated using a glass homogenizer. Marrow cells were obtained by washing the bone marrow. See, for example, Shears, S. B. and Kirk, C. J. (1984), Biochem. J. 219:375-382.
(§2) Cells were cultured in RPMI-1640 medium supplemented with 10% fetal calf serum, 100 mM L-glutamine and 50 μg/ml gentamycin at 37° C. under 5% CO2. Cells were seeded into 24-well plates at a density of 50,000 cells/well and grown until near confluency, approximately 2 days, then transferred to 96-well plates at the same density. […] Viability of the cells was determined by trypan blue exclusion. […] Approximately 25% of K-562 and X-653 cells survived at a concentration of 12 μg/ml, and the same proportion of P-815 cells survived at a concentration of about 25 μg/ml.
(§3) The proliferation of the transformed cells was assessed by incubating ^3H-labeled thymidine in the media for 18 hours. At the end of the specified time period, the proliferation was measured by counting the amount of ^3H-thymidine incorporated. Thymidine incorporation provides a quantitative measure of the rate of DNA synthesis, which is typically directly proportional to the rate of cell division.

X-653 cells = assay: as above; assay type: cell-based, mouse; details: 3H-thymidine 18 hours, FIG. 6
Procedure: as §1, §2, §3

hepatocytes = assay: Viability of primary cultures of normal cells, trypan blue exclusion; assay type: cell-based, mouse; details: 18 hours
Procedure: as §1, §2
(§4) Viability was measured by trypan blue exclusion. […] At a concentration of 320 μg/ml, the number of viable splenocytes was reduced by 50% in comparison to the control. At concentrations of 640 μg/ml and 1280 μg/ml, 40% and 10%, respectively, of the splenocytes were still viable. At these same concentrations, approximately 50% and 25% of hepatocytes were still viable. Marrow cells were more sensitive to dimethylaminoarglabin hydrochloride. At a concentration of 160 μg/ml, only about 50% of the marrow cells were still viable. Increasing the concentration to 320 μg/ml reduced the viability to about 25%.

marrow cells = assay: as above; assay type: cell-based, mouse; details: 18 hours
Procedure: as §1, §2, §4

splenocytes = assay: as above; assay type: cell-based, mouse; details: 18 hours
Procedure: as §1, §2, §4

[1] = in vivo
Procedure: Maximum tolerable doses (MTD) of arglabin and derivatives were determined by daily intraperitoneal administration to rats, guinea pigs or mice and daily intravenous administration to rabbits over a period of five to 20 days.

Pliss lymphosarcoma = assay: Inhibition of tumor growth in implanted tumors; assay type: in vivo, rats; details: dose 30 mg/kg
Sarcoma-37 = assay: Inhibition of tumor growth in implanted tumors; assay type: in vivo, mice and rats; details: dose 30 mg/kg
L-1210 = assay: Implanted leukemia, survival; assay type: in vivo, mice and rats; details: dose 30 mg/kg
[2] = system: Sarcoma-45 resistant to sarcolysin; assay: Inhibition of growth of resistant tumour strains; assay type: in vivo, rats; details: dose 50 mg/kg
[3] = system: Sarcoma-45 resistant to prospidine; assay: Inhibition of growth of resistant tumour strains; assay type: in vivo, rats; details: dose 50 mg/kg
[4] = system: Pliss Lymphosarcoma resistant to prospidine; assay: Inhibition of growth of resistant tumour strains; duration of life and metastasis; assay type: in vivo, rats
immune system [5] = assay: Immune system modulation in intact mice; assay type: in vivo
Procedure: In intact mice, injection of 10 mg/kg increased the total number of leukocytes through an increase in the absolute number of lymphocytes. […] The nitroblue tetrazolium assay was used to assess the function of the neutrophils. […] With a higher dosage, 20 mg/kg, a decrease in nitroblue tetrazolium positive neutrophils was seen, indicating a decrease in function.
The level of the T-suppressor subpopulation was not altered. At a higher dosage (20 mg/kg), overall leukocyte number was not altered, even though B-lymphocyte number decreased and T-lymphocyte decreased to a lesser extent. Natural killer cell number was increased.
The increase in T-lymphocytes was accompanied by an increase in the level of the T-helper subpopulation of T-lymphocytes.

immune system [6] = assay: Immunologic status of patients of the first clinical trial, rozette-formation and phagocytosis; assay type: in vivo, human
Procedure: Immunologic status of the patients was evaluated using standard methods of rozette-formation and phagocytosis. These indices were studied prior to treatment, during treatment and after treatment. Blood samples were taken from a finger. […] A general change in the ratio of T-helper lymphocytes to T-suppressor lymphocytes was due to an increase of T-suppressor lymphocytes. […] Total number of leukocytes increased up to 9.4×10^9/L and the total number of lymphocytes increased as well. The levels of all types of immunoglobulins increased.
By day 20 of treatment, all indices returned to normal. In some patients, indices returned to normal by day 14. In patients that were analyzed 30 days after treatment, a significant increase in the number of T-lymphocytes and adhesiveness of neutrophils was observed.

immune system [7] = assay: Indices of patients' immunity, rozette forming and phagocytosis methods (Table X); assay type: in vivo, human
Procedure: The indices of immune system were determined using rozette forming and phagocytosis methods. […] Eleven indices of cellular and humoral immunity were measured from each patient in order to evaluate immune status. The following indices were determined on 0.05 ml of peripheral blood: absolute and relative amount of T- and B-lymphocytes, amount of non-differentiated “zero” cells, adhesion and phagocyte activity of neutrophils, hemogram, level of serum immunoglobulins. Indices were determined before treatment, on days 2, 5 and 14 of treatment, and after treatment.
Mean values of immunological indices were evaluated with regression analysis. Functional conditions of the immune system were estimated using integral indices such as a mean intensity (correlation) expressed in relative units.

CC1=CCC23OC2(C)CCC2C(CN(C)C)C(=O)OC2C13.Cl (stereo not shown) [Dimethylaminoarglabin hydrochloride]
concentration at which proliferation was effectively blocked (P-815 cells): 12 µg/mL
concentration at which proliferation was effectively blocked (X-653 cells): 6 µg/mL
hepatocytes still viable (hepatocytes; 640 μg/ml): approximately 50%
hepatocytes still viable (hepatocytes; 1280 μg/ml): about 25%
marrow cells still viable (marrow cells; 160 μg/ml): approximately 50%
marrow cells viability (marrow cells; 320 μg/ml): about 25%
number of viable splenocytes reduced in comparison to the control (splenocytes; 320 μg/ml): 50%
splenocytes still viable (splenocytes; 640 μg/ml): 40%
splenocytes still viable (splenocytes; 1280 μg/ml): 10%
maximum dosage (MTD) ([1]; guinea pig): 45 mg/kg
maximum dosage (MTD) ([1]; mouse): 30 mg/kg
maximum dosage (MTD) ([1]; rabbit): 20 mg/kg
maximum dosage (MTD) ([1]; rat): 50 mg/kg
Inhibition of Tumour Growth, % - Pliss lymphosarcoma (Pliss lymphosarcoma): 79.6%
Inhibition of Tumour Growth, % - Sarcoma-37 (Sarcoma-37): 78.2* %
L-1210 - increase in survival (L-1210): +60%
Inhibition of Tumour Strains Growth, % - Resistant Forms - Sarcoma-45 to sarcolysin [2]: 90.1*** %
Inhibition of Tumour Strains Growth, % - Resistant Forms - Sarcoma-45 to prospidine [3]: 87.4*** %
Inhibition of Tumour Strains Growth, % - Resistant Forms - Pliss Lymphosarcoma to prospidine ([4]; dose 30 mg/kg): 62.3%
Inhibition of Tumour Strains Growth, % - Resistant Forms - Pliss Lymphosarcoma to prospidine ([4]; dose 50 mg/kg): 87.4*** %
total number of leukocytes (immune system [5]; 10 mg/kg): increased
B-lymphocytes (immune system [5]; 10 mg/kg daily IP for 10 days): remained stable
overall leukocyte count (immune system [5]; 10 mg/kg daily IP for 10 days): increased
leukocyte number (immune system [5]; 20 mg/kg): did not result in an overall increase
nitroblue tetrazolium positive neutrophils (immune system [5]; 20 mg/kg): decrease
natural killer cell number (immune system [5]; 20 mg/kg daily IP for 10 days): increased
neutrophil adhesiveness (immune system [6]; days 3-5 of treatment, decreased from 42%): 28.5%
undifferentiated lymphocytes (immune system [6]; days 3-5 of treatment, increased from 21.5%): 42.2%
number of T-helper lymphocytes (immune system [6]; days 3-5 of treatment, reduced from 50%): 37.3%
number of T-lymphocytes (immune system [6]; days 3-5 of treatment, reduced from 57%): 40.1%
total number of leukocytes increased up to (immune system [6]; during treatment): up to 9.4 ×10^9/L
level of non-differentiated "zero" cells (immune system [7]; 2nd-5th day of treatment): increased
percentage of T-lymphocytes and T-helper lymphocytes (immune system [7]; 2nd-5th day of treatment): reduced considerably
immunoglobulins A, M and G (immune system [7]; after the treatment): increased amount
